We go through 39 molecules from patent US9815864B2, “Substituted nucleosides, nucleotides and analogs thereof” (Alios BioPharma, Inc., priority 2013, dated 2017).

Where two headings read alike, the source gives them in different places. A value given as a limit tells only on which side of the number the result lay.

One assay deals with Murine norovirus (MNV-1). In words: Norovirus MNV-1 antiviral assay (CPE reduction, CellTiter-Glo, RAW 264.7 cells). The class given is cell-based. To be noted: RAW 264.7 cells infected with MNV-1 (MOI of 0.001), 3 days, read-out: EC50.
In another assay the test system is NV genome in HG23 cells. Nature of the assay: Norovirus replicon assay (HG23 cells, NV genome by qRT-PCR). The class given is cell-based, genogroup 1 norovirus.
For assay [1], the target named is Norovirus polymerase (NoVpol, genotype II) (Lordsdale virus, UniProt P54634). In words: biochemical. To be noted: 50 nM recombinant enzyme, 2.5 hours at 30° C.; read-out: IC50.
Chain of Norovirus polymerase (NoVpol, genotype II) (P54634 1190-1699 limits assumed): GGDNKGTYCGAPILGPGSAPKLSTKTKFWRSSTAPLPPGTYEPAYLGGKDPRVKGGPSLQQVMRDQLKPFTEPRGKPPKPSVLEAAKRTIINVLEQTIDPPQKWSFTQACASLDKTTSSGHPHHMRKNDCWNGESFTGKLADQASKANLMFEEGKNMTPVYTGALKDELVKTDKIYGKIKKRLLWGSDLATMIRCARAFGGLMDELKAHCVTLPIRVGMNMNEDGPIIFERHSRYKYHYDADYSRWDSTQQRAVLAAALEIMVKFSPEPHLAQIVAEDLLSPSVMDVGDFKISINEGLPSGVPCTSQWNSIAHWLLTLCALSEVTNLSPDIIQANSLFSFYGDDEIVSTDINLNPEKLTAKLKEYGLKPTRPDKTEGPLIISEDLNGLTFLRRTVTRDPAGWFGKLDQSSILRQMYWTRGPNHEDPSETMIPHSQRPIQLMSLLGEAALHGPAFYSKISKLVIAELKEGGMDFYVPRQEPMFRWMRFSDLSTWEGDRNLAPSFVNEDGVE
The mark [2] stands for this setting: Norovirus, HG23 cells, reduction of NV genome vs mock-medium at 48 h, read-out: EC50.
Where [3] appears, read: HG23 cells, reduction of NV genome vs mock-medium at 48 h, read-out: EC50.

For the molecule `CCOc1nc(N)nc2c1ncn2[C@@H]1O[C@]2(F)CO[P@@](=O)(OC(C)C)O[C@H]2[C@@]1(C)O` [Compound 145a], the EC50 with Murine norovirus (MNV-1) (RAW264.7, 72 h) lay within 10 to 100 µM.

For `Nc1ccn([C@@H]2O[C@@](CO)(CCl)[C@@H](O)[C@H]2O)c(=O)n1` [Compound 271a], the EC50 in the assay with Murine norovirus (MNV-1) (RAW264.7, 72 h) was 10 to 100 µM; with NV genome in HG23 cells (setting [2]) it was 10 to 100 µM.

Turning to `C#C[C@]1(O)[C@H](n2cnc3c(OCC)nc(N)nc32)O[C@](F)(CO[P@](=O)(N[C@@H](C)C(=O)OC2CCCCC2)Oc2ccccc2)[C@H]1O` [Compound 142a], in the assay on NV genome in HG23 cells (setting [3]), the EC50 lay in the range of 1 to 10 µM.

As for `CCOc1nc(N)nc2c1ncn2[C@@H]1O[C@](F)(COP(=O)(N[C@@H](C)C(=O)OC2CCCCC2)Oc2ccccc2)[C@@H](F)[C@@]1(C)O` (some centres unmarked) [Compound 134a], in the assay with NV genome in HG23 cells (Norovirus, HG23, 48 h), the EC50 lay in the range of 1 to 10 µM.

Consider `Nc1ccn([C@@H]2O[C@@](CO)(CF)[C@@H](O)[C@H]2F)c(=O)n1` [Compound 23a], for which the EC50 in the assay with Murine norovirus (MNV-1) (RAW264.7, 72 h) lay in the range of 1 to 10 µM; with NV genome in HG23 cells (setting [2]), 10 to 100 µM.

`C#C[C@@]1(O)[C@H](O)[C@@H](CO)O[C@H]1n1ccc2c(N)ncnc21` [Compound 291a]: the EC50 in the assay on Murine norovirus (MNV-1) (RAW264.7, 72 h) is less than 1 µM; with NV genome in HG23 cells (setting [2]), less than 1 µM.

`[N-]=[N+]=N[C@]1(CO)O[C@@H](n2ccc(N)nc2=O)C(F)(F)[C@@H]1O` [Compound 380a]: the 50% effective concentration (EC50) in the assay with NV genome in HG23 cells (setting [2]) lay within 1 to 10 µM.

Regarding `N#C[C@@]1(n2ccc(N)nc2=O)O[C@@](CO)(CF)[C@@H](O)[C@H]1O` [Compound 376a], the EC50 in the assay on Murine norovirus (MNV-1) was in the range of 10 to 100 µM.

With `C#C[C@]1(O)[C@H](n2ccc(=O)[nH]c2=O)O[C@](F)(COP(=O)(OCOC(=O)OC(C)C)OCOC(=O)OC(C)C)[C@H]1O` [Compound 208a], the EC50 with Murine norovirus (MNV-1) (RAW264.7, 72 h) is 10 to 100 µM; in the assay on NV genome in HG23 cells (setting [2]) it was less than 1 µM.

For the molecule `C#C[C@@]1(O)[C@H](O)[C@](CO)(CCl)O[C@H]1n1ccc(=O)[nH]c1=O` [Compound 344a], the EC50 in the assay with NV genome in HG23 cells (setting [2]) lay in the range of 10 to 100 µM.

As to `[N-]=[N+]=N[C@]1(CO)O[C@@H](n2ccc(N)nc2=O)[C@H](O)[C@@H]1O` [Compound 381a], the 50% effective concentration (EC50) in the assay on NV genome in HG23 cells (setting [2]) lay within 10 to 100 µM.

In the assay with NV genome in HG23 cells (HG23 cells, reduction of NV genome vs mock-medium at 48 h), `C#C[C@]1(F)[C@H](n2cnc3c(OCC)nc(N)nc32)O[C@](F)(COP(=O)(N[C@@H](C)C(=O)OC2CCCCC2)Oc2ccccc2)[C@H]1O` (some centres unmarked) [Compound 148a] gave an EC50 of less than 1 µM.

In the assay on NV genome in HG23 cells (Norovirus, HG23, 48 h), `CCOc1nc(N)nc2c1ncn2[C@@H]1O[C@](F)(COP(=O)(N[C@@H](C)C(=O)OC2CCCCC2)Oc2ccccc2)[C@@H](O)[C@@]1(C)O` (some centres unmarked) [Compound 128a] had an EC50 of 1 to 10 µM.

In the case of `[N-]=[N+]=NC[C@]1(CO)O[C@@H](n2ccc(N)nc2=O)[C@H](F)[C@@H]1O` [Compound 113a], the EC50 in the assay with Murine norovirus (MNV-1) (RAW264.7, 72 h) lay within 10 to 100 µM; in the assay with NV genome in HG23 cells (setting [2]), 1 to 10 µM.

`C#C[C@]1(F)[C@H](n2cnc3c(OCC)nc(N)nc32)O[C@](F)(COP(=O)(N[C@@H](C)C(=O)OC2CCCCC2)Oc2ccccc2)[C@H]1O` (some centres unmarked) [Compound 147a] displayed an EC50 in the assay on NV genome in HG23 cells (Norovirus, HG23, 48 h) of less than 1 µM.

As for `CCOc1nc(N)nc2c1ncn2[C@@H]1O[C@](F)(CO[P@@](=O)(N[C@@H](C)C(=O)OC2CCCCC2)Oc2ccccc2)[C@@H](O)[C@@]1(C)F` [Compound 141a], the EC50 in the assay on Murine norovirus (MNV-1) and with NV genome in HG23 cells (setting [3]) was 1 to 10 µM throughout.

Consider `CCOc1nc(N)nc2c1ncn2[C@@H]1O[C@]2(F)CO[P@](=O)(OC(C)C)O[C@H]2[C@@]1(C)F` [Compound 149a], for which the EC50 is 10 to 100 µM in the assay on Murine norovirus (MNV-1) and 1 to 10 µM with NV genome in HG23 cells (setting [3]).

`CCOc1nc(N)nc2c1ncn2[C@@H]1O[C@](CF)(COP(=O)(N[C@@H](C)C(=O)OC2CCCCC2)Oc2ccccc2)[C@@H](O)[C@@]1(C)O` (some centres unmarked) [Compound 153a] came in with an EC50 in the assay with NV genome in HG23 cells (Norovirus, HG23, 48 h) of less than 1 µM.

On to `C#C[C@]1(O)[C@H](n2cnc3c(=O)[nH]c(N)nc32)O[C@](F)(CO)[C@H]1F` [Compound 146a], for which, in the assay on Murine norovirus (MNV-1) (RAW264.7, 72 h), the EC50 was in the range of 10 to 100 µM. The IC50 in assay [1] is less than 1 µM.

`C[C@@]1(O)[C@H](O)[C@](CO)(CF)O[C@H]1n1ccc(N)nc1=O` [Compound 338a]: the EC50 with NV genome in HG23 cells (setting [2]) was in the range of 10 to 100 µM.

Consider `C#C[C@]1(O)[C@H](n2cnc3c(OCC)nc(N)nc32)O[C@](F)(CO[P@@](=O)(N[C@@H](C)C(=O)OC2CCCCC2)Oc2ccccc2)[C@H]1O` [Compound 143a], for which, in the assay on NV genome in HG23 cells (setting [3]), the EC50 fell in the range of 1 to 10 µM.

In the case of `C=C[C@]1(O)[C@H](n2ccc(=O)[nH]c2=O)O[C@](F)(COP(=O)(O)OP(=O)(O)OP(=O)(O)O)[C@H]1O` [Compound 330a], in assay [1], the IC50 lay within 1 to 10 µM.

In the case of `[N-]=[N+]=N[C@]1(CO)O[C@@H](n2ccc(N)nc2=O)[C@@H](O)[C@@H]1O` [Compound 266a], in the assay with NV genome in HG23 cells (setting [2]), the EC50 is 1 to 10 µM.

As for `C=C[C@]1(COP(=O)(O)OP(=O)(O)OP(=O)(O)O)O[C@@H](n2ccc(=O)[nH]c2=O)C(F)(F)[C@@H]1O` [Compound 221a], in assay [1], the IC50 fell in the range of 1 to 10 µM.

On to `C#C[C@]1(O)[C@H](n2cnc3c(=O)[nH]c(N)nc32)O[C@](F)(COP(=O)(O)OP(=O)(O)OP(=O)(O)O)[C@H]1F` [Compound 233a], for which, in assay [1], the IC50 was less than 1 µM.

As to `C[C@]1(O)[C@H](n2cnc3c(=O)[nH]c(N)nc32)O[C@](F)(COP(=O)(O)OP(=O)(O)OP(=O)(O)O)[C@H]1F` [Compound 232a], in assay [1], the IC50 was less than 1 µM.

As to `C#C[C@]1(COP(=O)(O)OP(=O)(O)OP(=O)(O)O)O[C@@H](n2ccc(N)nc2=O)[C@H](F)[C@@H]1O` [Compound 36c], in assay [1], the IC50 lay in the range of 1 to 10 µM.

On to `C[C@]1(N)[C@H](n2ccc(N)nc2=O)O[C@](F)(COP(=O)(O)OP(=O)(O)OP(=O)(O)O)[C@H]1O` [Compound 303a], for which the IC50 in assay [1] was in the range of 10 to 100 µM.

As to `Nc1ccn([C@@H]2O[C@](CF)(COP(=O)(O)OP(=O)(O)OP(=O)(O)O)[C@@H](O)C2(F)F)c(=O)n1` [Compound 227a], the IC50 in assay [1] fell in the range of 1 to 10 µM.

Turning to `C#C[C@@]1(O)[C@H](O)[C@@](CF)(COP(=O)(O)OP(=O)(O)OP(=O)(O)O)O[C@H]1n1cnc2c(N)ncnc21` [Compound 230a], the IC50 in assay [1] was less than 1 µM.

For the molecule `C[C@@]1(O)[C@H](O)[C@@](CF)(COP(=O)(O)OP(=O)(O)OP(=O)(O)O)O[C@H]1n1ccc(N)nc1=O` [Compound 354a], the IC50 in assay [1] was less than 1 µM.

For the molecule `Nc1ncnc2c1ncn2[C@@H]1O[C@](CF)(COP(=O)(O)OP(=O)(O)OP(=O)(O)O)[C@@H](O)[C@H]1F` [Compound 98c], the IC50 in assay [1] is less than 1 µM.

On to `Nc1ccn([C@@H]2O[C@@](COP(=O)(O)OP(=O)(O)OP(=O)(O)O)(C(F)F)[C@@H](O)[C@H]2F)c(=O)n1` [Compound 329a], for which the IC50 in assay [1] lay within 1 to 10 µM.

On to `[N-]=[N+]=N[C@]1(COP(=O)(O)OP(=O)(O)OP(=O)(O)O)O[C@@H](n2ccc(N)nc2=O)[C@H](O)[C@@H]1O` [Compound 383a], for which the IC50 in assay [1] was less than 1 µM.

For `C[C@@]1(O)[C@H](O)[C@@](CF)(COP(=O)(O)OP(=O)(O)OP(=O)(O)O)O[C@H]1n1cnc2c(=O)[nH]c(N)nc21` [Compound 216a], in assay [1], the IC50 is less than 1 µM.

With `O=c1ccn([C@@H]2O[C@](CF)(COP(=O)(O)OP(=O)(O)OP(=O)(O)O)[C@@H](O)[C@]2(O)CF)c(=O)[nH]1` [Compound 353a], in assay [1], the IC50 lay in the range of 1 to 10 µM.

With `C#C[C@@]1(O)[C@H](O)[C@@H](COP(=O)(O)OP(=O)(O)OP(=O)(O)O)O[C@H]1n1cnc2c(N)ncnc21` [Compound 289a], in assay [1], the IC50 was less than 1 µM.

For the molecule `C[C@]1(O)[C@H](n2ccc(N)nc2=O)O[C@](F)(COP(=O)(O)OP(=O)(O)OP(=O)(O)O)[C@H]1O` [Compound 238a], in assay [1], the IC50 is less than 1 µM.

Regarding `Nc1nc(=O)n([C@@H]2O[C@](CCl)(COP(=O)(O)OP(=O)(O)OP(=O)(O)O)[C@@H](O)[C@H]2F)cc1F` [Compound 97g], the IC50 in assay [1] lay within 1 to 10 µM.
